Where a SMILES comes first, the peptide text is derived from it. [ ]: non-standard residue; d: D form. Nle = CCCC[C@H](N)C(=O)O

One data set deals with T1, MCL-1 (Homo sapiens, UniProt Q07820).
T1 construct: MCL-1 (residues 172-327) was expressed and purified as described previously; made in house
The experiment in a line: Competitive inhibition, fluorescence anisotropy, MCL-1 and fluorophore-labelled WT BH3 sequence. It is filed as binding. Conditions: competition FA; MCL-1 (residues 172-327), tracer FAM-Ahx-BID / fluorophore-labelled WT BH3 sequence; 20 mM Tris, 150 mM NaCl, pH 7.6; 384-well plates, tested in triplicate; excitation 480 nm, emission 535 nm; fit to sigmoidal logistic model; Fig. S160; read-out: inhibitory potency (competitive inhibition, fluorescence anisotropy). The text has this: Finally, to explore internal peptide ‘stapling’ using this strategy, we selected a region of a BH3 protein – BID80–102, that binds MCL-1 to regulate apoptosis.[53,72] This PPI is known to play a significant role in cancer development and progression.[53,72] Three sequences (54–56) were synthesised with alGly and Cys positioned to afford either an internal i, i + 4 staple (57, 59; Fig. 5 and ESI ^†) or i, i + 7 staple (58; Fig. 5 and ESI ^†), fixing the length of either one or two full helical turns of the peptide, respectively. In addition, peptide macrocycle 26 is a head-to-tail macrocycle representing the i, i + 4 binding region of these longer sequences. The staple for all three peptides was successfully formed under the standard conditions, albeit in lower yield than the N- to C-terminal cyclisations previously explored (57–59). The alpha-helical structure of peptide 59 was assessed via CD spectroscopy. […]
All samples were prepared in 20mM Tris, 150 mM NaCl, pH 7.6 solutions. All assays were performed using 384 -well plates (Greiner Bio -one, UK) and tested in triplicate using an EnVisionTM 2103 MultiLabel plate reader (Perkin Elmer; Waltham, MA, USA). […] Measured data were processed and analysed as previously described. […]
A general note: Fluorescence polarisation rises when a labelled molecule tumbles more slowly, as on binding a larger partner.

A short description of data set [1]: Same desulfurative C-C cyclisation as series A (TCEP, Ir photocatalyst, blue light) with N-terminal Cys and C-terminal allylglycine (reversed pentapeptides). Conditions: the molecule shown is the open-chain precursor; 17-membered ring; 6 M Gdn.HCl, 0.1 M Na2HPO4 pH 7.5-8.0 / MeCN 9:1; 0.5 mM; 25.0 °C.
Data set [2] can be described thus: C(sp3)-C(sp3) bond formation by visible-light-mediated Cys desulfurisation: alanyl radical adds to terminal alkene of allylglycine (or O-allyl Ser, pentenylGly, acrylamide); TCEP 50 eq (25 mM), (Ir[dF(CF3)ppy]2(dtbpy))PF6 1 mol%, 450 nm blue LED; unprotected peptides. Conditions: from C=CC[C@H](NC(=O)[C@H](C)NC(=O)[C@H](CC(C)C)NC(=O)[C@H](Cc1c[nH]cn1)NC(=O)[C@H](CCCNC(=N)N)NC(=O)[C@H](C)NC(=O)[C@@H](NC(=O)[C@H](CC(N)=O)NC(=O)[C@H](CCCNC(=N)N)NC(=O)[C@@H](NC(=O)[C@@H](NC(=O)[C@H](CC(=O)O)NC(=O)[C@H](CCC(=O)O)NC(C)=O)[C@@H](C)CC)[C@@H](C)CC)[C@@H](C)CC)C(=O)N[C@H](C(=O)NCC(=O)N[C@@H](CC(=O)O)C(=O)N[C@@H](CS)C(=O)N[C@@H](CCCC)C(=O)N[C@@H](CC(=O)O)C(=O)N[C@@H](CCCNC(=N)N)C(=O)N[C@@H](CO)C(=O)N[C@H](C(=O)N[C@@H](Cc1c[nH]c2ccccc12)C(N)=O)[C@@H](C)CC)C(C)C; 17-membered ring; 6 M Gdn.HCl, 0.1 M Na2HPO4 pH 7.5-8.0 / MeCN 9:1; 0.5 mM; 25.0 °C.

A short description of data set [3]: CD spectroscopy, alpha-helical structure. Conditions: alpha-helical content by CD; Fig. S159. The class given is physicochemical.

T1 sequence (Q07820 172-327): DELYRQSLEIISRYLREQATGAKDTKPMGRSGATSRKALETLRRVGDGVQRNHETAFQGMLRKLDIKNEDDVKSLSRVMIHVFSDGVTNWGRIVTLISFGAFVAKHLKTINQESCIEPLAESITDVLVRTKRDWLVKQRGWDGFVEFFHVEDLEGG

With `CCCC[C@H](NC(=O)[C@H](CO)NC(=O)[C@H](CC(=O)O)NC(=O)CNC(=O)[C@@H](NC(=O)[C@H](CCC(N)=O)NC(=O)[C@H](C)NC(=O)[C@H](CC(C)C)NC(=O)[C@H](Cc1c[nH]cn1)NC(=O)[C@H](CCCNC(=N)N)NC(=O)[C@H](C)NC(=O)[C@@H](NC(=O)[C@H](CC(N)=O)NC(=O)[C@H](CCCNC(=N)N)NC(=O)[C@@H](NC(=O)[C@@H](NC(=O)[C@H](CC(=O)O)NC(=O)[C@H](CCC(=O)O)NC(C)=O)[C@@H](C)CC)[C@@H](C)CC)[C@@H](C)CC)C(C)C)C(=O)N[C@@H](CC(=O)O)C(=O)N[C@@H](CCCNC(=N)N)C(=O)N[C@@H](CO)C(=O)N[C@H](C(=O)N[C@@H](Cc1c[nH]c2ccccc12)C(N)=O)[C@@H](C)CC` [BID-wt, reference compound] (Ac-EDIIRNIARHLAQVGDS[Nle]DRSIW-NH2), the IC50 at MCL-1 was determined as 7.4 ± 0.9 µM.

In data set [1], `C=CC[C@H](NC(=O)[C@H](CCCCN)NC(=O)[C@@H]1CCCN1C(=O)[C@@H](NC(=O)[C@@H](N)CS)[C@@H](C)O)C(N)=O` [H-Cys-Thr-Pro-Lys-(allylGly)-NH2] had a ring closure, conversion by HPLC of 0%.

On to `C=CC[C@H](NC(=O)[C@H](CCC(N)=O)NC(=O)[C@H](Cc1c[nH]cn1)NC(=O)[C@@H](NC(=O)[C@@H](N)CS)C(C)C)C(N)=O` [H-Cys-Val-His-Gln-(allylGly)-NH2], for which, in data set [1], the ring closure, conversion by HPLC is 0%.

Regarding `CCCC[C@H](NC(=O)[C@@H]1CCCC[C@H](NC(=O)[C@H](C)NC(=O)[C@H](CC(C)C)NC(=O)[C@H](Cc2c[nH]cn2)NC(=O)[C@H](CCCNC(=N)N)NC(=O)[C@H](C)NC(=O)[C@@H](NC(=O)[C@H](CC(N)=O)NC(=O)[C@H](CCCNC(=N)N)NC(=O)[C@@H](NC(=O)[C@@H](NC(=O)[C@H](CC(=O)O)NC(=O)[C@H](CCC(=O)O)NC(C)=O)[C@@H](C)CC)[C@@H](C)CC)[C@@H](C)CC)C(=O)N[C@@H](C(C)C)C(=O)NCC(=O)N[C@@H](CC(=O)O)C(=O)N1)C(=O)N[C@@H](CC(=O)O)C(=O)N[C@@H](CCCNC(=N)N)C(=O)N[C@@H](CO)C(=O)N[C@H](C(=O)N[C@@H](Cc1c[nH]c2ccccc12)C(N)=O)[C@@H](C)CC` [compound 59], the IC50 on MCL-1 was 26 ± 4 µM. In data set [2], the ring closure, isolated yield was found to be 49%.

Consider “Ac-EDIIRNIARHLA(alG)VGDCNLDRSIW-NH2 [compound 56, starting peptide carrying the allyl glycine residue]”, for which, in data set [3], the “helicity (CD spectroscopy)” value amounted to 38%.

The values are drawn from publication PMC11206203, “Peptide macrocyclisation via intramolecular interception of visible-light-mediated desulfurisation” (Chemical Science, 2024).
